Results as given in patent US5023254A, “Aminoalkylindoles, their production, and pharmaceutical preparations based thereon” (Schering Aktiengesellschaft, priority 1988, dated 1991).

Assays:
[1] = system: human MCF-7 breast cancer cells; experiment: growth of hormone-dependent human MCF-7 breast cancer cells, cell count; type: cell-based; details: for activity at 0.1 µM / activity at 0.5 µM / activity at 1 µM / activity at 5 µM / activity at 10 µM: Homo sapiens, read-out: Cell Count (% T/C); for activity at 10 µM: MCF-7, 1 × 10^-5 M
From the text: (§1) The test protocol for the research is fully described in Eur.J. Cancer Clin. Oncol.

[2] = system: mouse uterus; experiment: Uterotrophic test on infantile mouse (estrogen activity); type: in vivo; parameters: unit not given here
From the text: (§2) This test is fully described in Cancer Treatment Reviews 1984, 11, 147, and J.Med.Chem., 1984, 27, 1439.

[3] = system: mouse uterus; experiment: Antiuterotrophic test on infantile mouse (anti-estrogen activity); type: in vivo; parameters: Antiuterotrophic Test Rel. uterus wgt / Antiuterotrophic Test Action (rel. uterus wgt): unit not given here; details: for Antiuterotrophic Test Rel. uterus wgt / inhibition in vivo at 0.005 mg / inhibition in vivo at 0.025 mg / Antiuterotrophic Test Action (rel. uterus wgt) / inhibition in vivo at 0.625 mg: infantile mouse; for inhibition in vivo at 0.125 mg / inhibition in vivo at 0.005 mg / inhibition in vivo at 0.025 mg / inhibition in vivo at 0.625 mg: read-out: Antiuterotrophic Test Inhib. (%); for inhibition in vivo at 0.005 mg: dose 5 ug (per animal); for inhibition in vivo at 0.025 mg: dose 25 ug (per animal)
From the text: as §2

[4] = system: human MCF-7 breast cancer cells; experiment: [3H] thymidine incorporation in hormone-dependent human MCF-7 breast cancer cells; type: cell-based
From the text: as §1

[5] = biological target: T1, estrogen receptor (Bos taurus, UniProt P49884); experiment: relative binding affinity (RBA) for the estrogen receptor from calf uterus, displacement of 3H-17β estradiol; details: calf uterus; relative to 17 beta estradiol = 100
T1 construct: estrogen receptor from calf uterus; from tissue; host or cells: calf uterus
T1 sequence (P49884 1-596): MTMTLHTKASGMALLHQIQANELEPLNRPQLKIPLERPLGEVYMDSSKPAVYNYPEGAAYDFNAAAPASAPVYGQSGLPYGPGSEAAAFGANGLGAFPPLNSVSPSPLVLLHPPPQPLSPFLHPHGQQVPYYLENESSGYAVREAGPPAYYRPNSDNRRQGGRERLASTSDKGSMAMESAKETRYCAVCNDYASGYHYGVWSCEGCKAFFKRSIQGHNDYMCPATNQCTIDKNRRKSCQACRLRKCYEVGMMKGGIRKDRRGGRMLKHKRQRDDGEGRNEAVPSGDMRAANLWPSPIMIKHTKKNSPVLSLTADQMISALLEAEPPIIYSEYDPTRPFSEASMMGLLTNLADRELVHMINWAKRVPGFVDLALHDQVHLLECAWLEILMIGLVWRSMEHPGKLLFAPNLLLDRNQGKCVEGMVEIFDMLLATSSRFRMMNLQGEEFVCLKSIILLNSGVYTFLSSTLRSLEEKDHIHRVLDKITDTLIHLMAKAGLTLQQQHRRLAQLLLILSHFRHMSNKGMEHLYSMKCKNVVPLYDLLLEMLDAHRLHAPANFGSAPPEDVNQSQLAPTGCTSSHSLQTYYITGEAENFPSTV
From the text: *Relative binding affinities for the estrogen receptor from calf uterus,

[6] = Homo sapiens, MCF7, […], read-out: [3H] Thymidine incorporation (% T/C)
[7] = 10^-7 M, six days after incubation

Row | Compound | activity at 10 µM ([1]; MCF7) | activity at 1 µM ([1]; MCF7, MCF-7, 1 × 10^-6 M) | activity at 0.1 µM ([1]; MCF7, MCF-7, 1 × 10^-7 M) | inhibition in vivo at 0.125 mg ([3]; Mus musculus) | inhibition in vivo at 0.005 mg [3] | inhibition in vivo at 0.025 mg [3] | RBA (relative binding affinity for the estrogen receptor) [5] | Uterotrophic Test Action (rel. uterus wgt) ([2]; dose 5 ug/animal) | Uterotrophic Test Action (rel. uterus wgt) ([2]; dose 25 ug/animal) | Antiuterotrophic Test Action (rel. uterus wgt) ([3]; dose 5 ug/animal) | Antiuterotrophic Test Action (rel. uterus wgt) ([3]; dose 25 ug/animal) | Antiuterotrophic Test Action (rel. uterus wgt) ([3]; dose 625 ug/animal) | inhibition in vivo at 0.625 mg ([3]; dose 625 ug/animal) | activity at 5 µM ([1]; MCF7, MCF-7, 5 × 10^-6 M) | activity at 0.5 µM ([1]; MCF7, MCF-7, 5 × 10^-7 M) | Uterotrophic Test Action (rel. uterus wgt) ([2]; dose 625 ug/animal) | other results
1 | Cc1c(-c2ccc(O)cc2)n(CCCCCCN2CCCC2)c2ccc(O)cc12 [Compound 6, 5-Hydroxy-2-(4-hydroxyphenyl)-3-methyl-1-[6-pyrrolidino-hexyl]-indole] | – | – | – | – | – | – | – | – | – | – | – | – | – | – | – | – | activity at 0.1 µM ([1]; MCF7, […]): 65%; activity at 0.5 µM ([1]; MCF7, […]): 49%; activity at 1 µM ([1]; MCF7, […]): 24%; activity at 5 µM ([1]; MCF7, […]): 12%; Uterotrophic Test Rel. uterus wgt ([2]; dose 5 ug): 9.0 ± 1.8; Uterotrophic Test Rel. uterus wgt ([2]; dose 50 ug): 8.2 ± 1.8; Uterotrophic Test Rel. uterus wgt ([2]; dose 250 ug): 12.7 ± 2.7; inhibition in vivo at 0.001 mg ([3]; Mus musculus, read-out: Antiuterotrophic Test Inhib. (%), infantile mouse, dose 1 ug): 20%; Antiuterotrophic Test Rel. uterus wgt ([3]; dose 1 ug): 48.3 ± 7.2; Antiuterotrophic Test Rel. uterus wgt ([3]; dose 5 ug): 20.1 ± 7.3; Antiuterotrophic Test Rel. uterus wgt ([3]; dose 25 ug): 12.6 ± 1.9; Antiuterotrophic Test Rel. uterus wgt ([3]; dose 125 ug): 8.9 ± 1.6; activity at 0.1 µM [4, 6]: 32%; activity at 0.5 µM [4, 6]: 32%; activity at 1 µM [4, 6]: 22%; activity at 5 µM [4, 6]: 3%
2 | Cc1c(-c2ccc(O)cc2)n(CCCCCCN2CCOCC2)c2ccc(O)cc12 [Compound 10, 5-Hydroxy-2-(4-hydroxyphenyl)-3-methyl-1-[6-morpholino-hexyl]-indole] | 36% | 52% | 75% | 102% | 8% | 18% | 10 | – | – | – | – | – | – | – | – | – | Uterotrophic Test Rel. uterus wgt ([2]; dose 1 ug): 21.2 ± 3.9; Uterotrophic Test Rel. uterus wgt ([2]; dose 5 ug): 19.5 ± 6.9; Uterotrophic Test Rel. uterus wgt ([2]; dose 25 ug): 21.8 ± 11.3; Uterotrophic Test Rel. uterus wgt ([2]; dose 125 ug): 17.4 ± 1.7; Antiuterotrophic Test Rel. uterus wgt ([3]; dose 5 ug): 51.2 ± 7.5; Antiuterotrophic Test Rel. uterus wgt ([3]; dose 25 ug): 47.7 ± 8.4; Antiuterotrophic Test Rel. uterus wgt ([3]; dose 125 ug): 18.0 ± 4.8
3 | Cc1c(-c2ccc(O)cc2)n(CCCCCCNCc2ccccc2)c2ccc(O)cc12 [Compound 12, 1-(6-Benzylaminohexyl)-5-hydroxy-2-(4-hydroxyphenyl)-3-methyl-indole] | 41% | 46% | 47% | 51% | 25% | 43% | 15 | 17.8 ± 4.6 | 23.6 ± 2.5 | 53.2 ± 9.0 | 44.6 ± 7.1 | 41.8 ± 7.4 | 49% | – | – | – | –
4 | Cc1c(-c2ccc(O)cc2)n(CCCCCC(=O)N2CCCC2)c2ccc(O)cc12 [Compound 16, 5-Hydroxy-2-(4-hydroxyphenyl)-3-methyl-1-(6-pyrrolidinocarbonylpentyl)-indole] | 42.1 ± 4% | 47.1 ± 3.7% | 57.2 ± 4.4% | 53% | 10% | 29% | 7 | 18.2 ± 2.3 | 16.5 ± 2.4 | 47.5 ± 10.9 | 42.0 ± 7.0 | 40.7 ± 3.9 | 44% | 44 ± 3.6% | 48.2 ± 5.4% | 35.3 ± 10.7 | –
5 | Cc1c(-c2ccc(O)cc2)n(CCCCCC(=O)N2CCCCC2)c2ccc(O)cc12 [Compound 17, 5-Hydroxy-2-(4-hydroxyphenyl)-3-methyl-1-(6-piperidinocarbonylpentyl)-indole] | 86.5 ± 8.3% | 96 ± 7.7% | 89 ± 10.8% | 59% | 6% | 22% | 19 | 17.7 ± 3.2 | 16.3 ± 3.0 | 48.7 ± 9.1 | 42.9 ± 4.7 | – | – | 99.6 ± 7.6% | 95.5 ± 10.2% | – | Uterotrophic Test Action (rel. uterus wgt) ([2]; dose 1 ug/animal): 23.8 ± 2.8
6 | Cc1c(-c2ccc(O)cc2)n(CCCCCC(=O)N2CCOCC2)c2ccc(O)cc12 [Compound 18, 5-Hydroxy-2-(4-hydroxyphenyl)-3-methyl-1-(6-morpholinocarbonylpentyl)-indole] | 33.3 ± 2.8% | 56.4 ± 5.2% | 57.5 ± 6.8% | 41% | – | – | 26 | 22.0 ± 5.6 | 21.2 ± 4.6 | 53.5 ± 8.7 | 52.8 ± 7.4 | – | – | 42.4 ± 3.7% | 58.1 ± 6.7% | – | Uterotrophic Test Action (rel. uterus wgt) ([2]; dose 1 ug/animal): 20.2 ± 3.4
7 | CCN(CC)C(=O)CCCCCn1c(-c2ccc(O)cc2)c(C)c2cc(O)ccc21 [Compound 19, 1-(6-Diethylcarbamoylpentyl)-5-hydroxy-2-(4-hydroxyphenyl)-3-methylindole] | 44.9 ± 3.7% | 61.4 ± 4.4% | 59.7 ± 6.1% | 34% | 13% | 13% | 15 | 18.4 ± 3.2 | 17.9 ± 2.0 | 50.9 ± 8.2 | 50.9 ± 4.8 | 35.3 ± 6.1 | 66% | 56.2 ± 4.5% | 60.1 ± 3.8% | 32.7 ± 6.5 | –
8 | Cc1c(-c2ccc(O)cc2)n(CCCCCC(=O)NCc2ccccc2)c2ccc(O)cc12 [Compound 20, 1-(6-Benzylcarbamoylpentyl)-5-hydroxy-2-(4-hydroxyphenyl)-3-methylindole] | 26.8 ± 4.2% | 46.8 ± 4.2% | 58.3 ± 4.9% | – | – | 12% | 12 | 16.5 ± 3.6 | 20.9 ± 6.5 | 50.7 ± 5.0 | 46.9 ± 7.7 | 59.5 ± 12.4 | -23% | 36.6 ± 2.5% | 47.9 ± 3% | 19.9 ± 4.1 | –
9 | CC/C(=C(\c1ccccc1)c1ccc(OCCN(C)C)cc1)c1ccccc1 [Tamoxifen, reference compound] | – | 27% | 77% | – | – | – | – | – | – | – | – | – | – | – | – | – | inhibition of MCF-7 cell growth / cell count (in words) [1, 7]: no significant effect; thymidine incorporation (in words) [4, 7]: no significant effect; activity at 1 µM ([4]; Homo sapiens, MCF7, MCF-7, 1 × 10^-6 M, read-out: [3H] Thymidine incorporation (% T/C)): 27%; activity at 0.1 µM ([4]; Homo sapiens, MCF7, MCF-7, 1 × 10^-7 M, read-out: [3H] Thymidine incorporation (% T/C)): 71%
